Experiments:
[1] = Volume of distribution at steady state in rat after iv administration; type: ADME, organism-based; conditions: in vivo
[2] = Volume of distribution at steady state in dog after iv administration; type: ADME, organism-based, Canis lupus familiaris; conditions: in vivo, read-out: Vdss
[3] = Volume of distribution at steady state in monkey after iv administration; type: ADME, organism-based; conditions: macaca, in vivo, read-out: Vdss
[4] = Volume of distribution at steady state in human after iv administration; type: ADME, organism-based; conditions: in vivo, read-out: Vdss
[5] = Clearance in rat after iv administration; type: ADME, organism-based; conditions: in vivo
[6] = Clearance in dog after iv administration; type: ADME, organism-based, Canis lupus familiaris; conditions: in vivo
[7] = Clearance in monkey after iv administration; type: ADME, organism-based; conditions: macaca, in vivo
[8] = Clearance in human after iv administration; type: ADME, organism-based; conditions: in vivo

SMILES: C[C@@H](O)[C@H]1C(=O)N2C(C(=O)O)=C(SCCOC(N)=O)S[C@H]12 [Sch-34343]
- Vdss [1]: 0.17 L/kg
- Vd [2]: 0.22 L/kg
- Vd [3]: 0.17 L/kg
- Vd [4]: 0.34 L/kg

SMILES: N=C(N)c1ccc(C(=O)N[C@@H](Cc2ccc(O)cc2)C(=O)N2CCC(OCC(=O)O)CC2)cc1 [LAMIFIBAN]
- Vdss [1]: 0.24 L/kg
- Vd [2]: 0.75 L/kg
- Vd [3]: 0.29 L/kg
- Vd [4]: 0.29 L/kg

SMILES: COC(=O)C1=C(C)NC(C)=C(C(=O)OCCN(C)Cc2ccccc2)C1c1cccc([N+](=O)[O-])c1 (centres undefined) [NICARDIPINE]
- Vdss [1]: 1.3 L/kg
- Vd [2]: 1.3 L/kg
- Vd [3]: 1.9 L/kg
- Vd [4]: 0.64 L/kg

SMILES: CN1CCC[C@H]1c1cccnc1 [NICOTINE]
- clearance [5]: 66 mL/min/kg
- Vdss [1]: 4.7 L/kg
- clearance [6]: 42 mL/min/kg
- Vd [2]: 3.3 L/kg
- clearance [7]: 14 mL/min/kg
- Vd [3]: 1.5 L/kg
- clearance [8]: 19 mL/min/kg

SMILES: CC(C)(C)S(=O)(=O)C[C@@H](Cc1ccccc1)C(=O)N[C@@H](Cc1cnc[nH]1)C(=O)N[C@@H](CC1CCCCC1)[C@@H](O)[C@@H](O)C1CC1
- Vdss [1]: 4.4 L/kg
- clearance [6]: 25 mL/min/kg
- Vd [2]: 1.5 L/kg
- clearance [7]: 20 mL/min/kg
- Vd [3]: 1.7 L/kg
- clearance [8]: 10 mL/min/kg
- Vd [4]: 0.84 L/kg

SMILES: N=C(N)N1CCC[C@@H](CNC(=O)C[C@H](NS(=O)(=O)c2ccc3ccccc3c2)C(=O)N(CC(=O)O)C2CC2)C1 [NAPSAGATRAN ANHYDROUS]
- Vdss [1]: 0.62 L/kg
- Vd [2]: 0.69 L/kg
- Vd [3]: 0.26 L/kg
- Vd [4]: 0.32 L/kg

SMILES: COC(=O)[C@H]1[C@@H](OC(=O)c2ccccc2)C[C@@H]2CC[C@H]1N2C [COCAINE]
- clearance [5]: 260 mL/min/kg
- Vdss [1]: 16 L/kg
- clearance [6]: 102 mL/min/kg
- Vd [2]: 3.8 L/kg
- clearance [7]: 64 mL/min/kg
- Vd [3]: 7.4 L/kg
- clearance [8]: 32 mL/min/kg

SMILES: Cn1c(=O)c2c(ncn2C)n(C)c1=O [CAFFEINE]
- Vdss [1]: 0.92 L/kg
- clearance [6]: 2.1 mL/min/kg
- Vd [2]: 0.76 L/kg
- clearance [7]: 3.1 mL/min/kg
- Vd [3]: 0.83 L/kg
- clearance [8]: 2 mL/min/kg
- Vd [4]: 0.73 L/kg

SMILES: CC(C)n1c(/C=C/C(O)CC(O)CC(=O)O)c(-c2ccc(F)cc2)c2ccccc21 (centres undefined) [FLUVASTATIN]
- Vdss [1]: 1 L/kg
- Vd [2]: 0.7 L/kg
- Vd [3]: 3.7 L/kg
- Vd [4]: 0.42 L/kg

SMILES: C[C@]12C=CC(=O)C=C1CC[C@@H]1[C@@H]2C(=O)C[C@@]2(C)[C@H]1CC[C@]2(O)C(=O)CO [PREDNISONE]
- clearance [5]: 163 mL/min/kg
- Vdss [1]: 1.4 L/kg
- clearance [6]: 27 mL/min/kg
- Vd [2]: 2.1 L/kg
- clearance [7]: 13 mL/min/kg
- Vd [3]: 1.6 L/kg
- clearance [8]: 3.6 mL/min/kg

SMILES: NC(=O)c1csc([C@@H]2O[C@H](CO)[C@@H](O)[C@H]2O)n1 [TIAZOFURIN]
- Vdss [1]: 2.5 L/kg
- Vd [2]: 0.9 L/kg
- Vd [3]: 2 L/kg
- Vd [4]: 0.9 L/kg

SMILES: CC(C)NCC(O)COc1cccc2ccccc12 (centres undefined) [PROPRANOLOL]
- Vdss [1]: 5.3 L/kg
- Vd [2]: 1.7 L/kg
- clearance [7]: 14 mL/min/kg
- Vd [3]: 0.6 L/kg
- clearance [8]: 15 mL/min/kg
- Vd [4]: 3.6 L/kg

SMILES: Cc1cn([C@H]2C[C@H](N=[N+]=[N-])[C@@H](CO)O2)c(=O)[nH]c1=O [ZIDOVUDINE]
- clearance [5]: 46 mL/min/kg
- clearance [6]: 14 mL/min/kg
- Vd [2]: 1 L/kg
- clearance [7]: 15 mL/min/kg
- Vd [3]: 1 L/kg
- clearance [8]: 24 mL/min/kg

SMILES: CN1C(C(=O)Nc2nccs2)=C(O)c2ccccc2S1(=O)=O [SUDOXICAM]
- Vdss [1]: 0.2 L/kg
- Vd [2]: 0.2 L/kg
- Vd [3]: 0.2 L/kg
- Vd [4]: 0.2 L/kg

SMILES: CO[C@@]1(NC(=O)CSC(F)F)C(=O)N2C(C(=O)O)=C(CSc3nnnn3CCO)CO[C@@H]21 [FLOMOXEF]
- Vdss [1]: 0.23 L/kg
- Vd [2]: 0.32 L/kg
- Vd [3]: 0.3 L/kg
- Vd [4]: 0.52 L/kg

SMILES: O=C(c1ccccc1)c1ccc2n1CCC2C(=O)O (centres undefined) [KETOROLAC]
- clearance [5]: 3.6 mL/min/kg
- Vdss [1]: 0.56 L/kg
- clearance [6]: 1.3 mL/min/kg
- Vd [2]: 0.33 L/kg
- clearance [7]: 0.6 mL/min/kg
- Vd [3]: 0.09 L/kg

SMILES: Cn1cc(/C=C2/C(=O)N3C(C(=O)O)=CS[C@H]23)nn1
- Vdss [1]: 1.3 L/kg
- Vd [2]: 0.32 L/kg
- Vd [3]: 0.27 L/kg
- Vd [4]: 0.28 L/kg
